Values of other authors, collected in patent US4380638A, “Chemical compounds” (Bristol-Myers Company, priority 1981, dated 1983).

Key:
[1] = tested on: H2 -receptor
[2] = tested on: peptic ulcer disease; details: Gray et al., Lancet, 1, 8001 (1977)
[3] = agranulocytosis
[4] = tested on: H2 -receptor; details: man

Row | oral absorption | Compound | H2-antagonist potency/effectiveness relative to another drug [1] | clinical effectiveness in peptic ulcer disease [2] | toxicity [3] | oral activity [4]
1 | – | CNC(=NC#N)NCCSCc1[nH]cnc1C [Cimetidine] | as effective an H2 -antagonist as metiamide | effective therapeutic agent in the treatment of peptic ulcer disease | without producing agranulocytosis | –
2 | poor | CNC(=S)NCCCCc1cnc[nH]1 [Burimamide] | – | – | – | –
3 | – | CNC(=S)NCCSCc1[nH]cnc1C [Metiamide] | more potent than burimamide | – | agranulocytosis | orally active in man
